Results from patent US4593104A, “2-halo-N-(azole-1-yl-methyl)-substituted acetanilides” (BASF Aktiengesellschaft, priority 1976, dated 1986).

Tests used:
Assay in all cases: preemergence treatment in the greenhouse, % damage
[1] = test system: Arach. hypog.; type: in vivo, Arachis hypogaea
Excerpt: The vessels employed were plastic flowerpots having a volume of 300 cm^3; the substrate was a sandy loam containing about 1.5% humus. The seeds of the test plants (see Table 1) were sown shallow, and separated according to species. In the case of Cyperus esculentus, pregerminated tubers were planted. In the preemergence treatment, the active ingredients were then immediately applied to the surface of the soil. They were suspended or emulsified in water as the vehicle, and sprayed through atomizing nozzles. After the agents had been applied, the vessels were lightly sprinkler-irrigated to set germination and growth going, and to activate the chemical agents. The vessels were then covered with transparent plastic hoods until the plants had taken root. This cover ensured uniform germination of the test plants (to the extent that this was not impaired by the chemicals), and prevented readily volatile substances from evaporating.
For postemergence treatment, the plants were first grown to a height of from 3 to 10 cm, depending on their habit, before treated. Hoods were not placed on the pots. The experiments were set up in the greenhouse, hotter areas (25° to 40° C.) being preferred for heat-loving species, and 15° to 30° C. for plants from moderate climates. The experiments were carried out for from 4 to 6 weeks. During this period the plants were tended and their reaction to the various treatments was assessed. The following tables contain the substances investigated, the application rates in kg/ha of active ingredient, and the test plant species. Assessments were made on a 0 to 100 scale, 0 denoting no damage or normal emergence, and 100 denoting no emergence or complete destruction of at least the visible plant parts.

[2] = test system: Echin. c.g.; type: in vivo
Summary of the method: (§1)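 Plants in humus-poor sandy loam (~1.5%) received kg/ha doses of active as aqueous spray. Preemergence sprays preceded irrigation and hooding until rooting; postemergence sprays, without hoods, hit 3–10 cm plants. Injury was assessed 0–100 across 4–6 weeks.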

[3] = test system: Setaria spp.; type: in vivo
Summary of the method: as §1

[4] = test system: Alopec. myosur.; type: in vivo
Summary of the method: as §1

[5] = test system: Zea mays; type: in vivo
Summary of the method: as §1

[6] = test system: Bromus spp.; type: in vivo
Summary of the method: as §1

[7] = test system: Matric. spp.; type: in vivo
Summary of the method: as §1

[8] = test system: Cyp. diff.; type: in vivo; settings: 0.5 kg/ha
Summary of the method: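 Greenhouse herbicide test at rates in kg/ha a.i. Pre-em soil spray right after sowing, then irrigation and hooding; post-em on 3–10 cm plants. Rated 0–100 over 4–6 weeks.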

[9] = test system: Solanum nigrum; type: in vivo; settings: 0.5 kg/ha
Summary of the method: as §1

[10] = test system: Brassica napus; type: in vivo; settings: 0.5 kg/ha
Summary of the method: as §1

Cc1cccc(C)c1N(Cn1ncnn1)C(=O)CCl
% damage ([1]; 2.0 kg/ha): 15%
% damage ([2]; 2.0 kg/ha): 100%
% damage ([3]; 2.0 kg/ha): 95%
% damage ([4]; 2.0 kg/ha): 98%
% damage ([5]; 2.0 kg/ha): 15%
% damage ([6]; 2.0 kg/ha): 98%
% damage ([7]; 2.0 kg/ha): 100%

COc1cc(C)n(CN(C(=O)CCl)c2c(C)cccc2C)n1
% damage ([1]; 0.5 kg/ha): 0%
% damage [8]: 100%
% damage ([2]; 0.5 kg/ha): 90%
% damage ([3]; 0.5 kg/ha): 98%
% damage ([4]; 0.5 kg/ha): 95%
% damage [9]: 85%
% damage ([5]; 0.5 kg/ha): 20%
% damage ([6]; 0.5 kg/ha): 95%
% damage [10]: 5%
% damage ([7]; 0.5 kg/ha): 95%
